Laboratory results published in patent publication US8110580B2, “Thiophene pyrazolopyrimidine compounds” (Eli Lilly and Company, priority 2006, dated 2012).
Residue numbers refer to the chain shown, from its start.

What was measured:
human CRF1 = target: T1, human CRF1 (Homo sapiens, UniProt P34998); assay: CRF1 filter binding assay; settings: HEK-hCRF1 membranes; 125I-Sauvagine (4 nM) in roller/adherent cells; read-out: Ki (inhibition constant), inhibition of binding of 125I-Sauvagine
T1 construct: expressed in transfected cells
T1 sequence (P34998 24-415): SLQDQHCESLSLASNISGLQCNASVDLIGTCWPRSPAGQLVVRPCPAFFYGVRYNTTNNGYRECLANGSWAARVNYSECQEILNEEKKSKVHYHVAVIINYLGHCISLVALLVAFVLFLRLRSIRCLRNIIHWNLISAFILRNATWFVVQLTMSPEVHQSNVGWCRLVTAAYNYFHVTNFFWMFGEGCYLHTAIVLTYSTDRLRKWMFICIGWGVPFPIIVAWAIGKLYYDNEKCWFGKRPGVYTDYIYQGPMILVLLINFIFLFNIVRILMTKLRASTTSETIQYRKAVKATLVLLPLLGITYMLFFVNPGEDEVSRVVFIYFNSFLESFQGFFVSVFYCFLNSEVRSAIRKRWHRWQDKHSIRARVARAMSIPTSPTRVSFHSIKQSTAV
Method: The limitations of plasmid-based human CRF1 expression, in terms of generating a recombinant cell line with sufficient receptor density to develop a binding assay, are overcome by using a Phoenix retroviral expression system licensed from Stanford. The stable HEK-hCRF1 cell line is used to prepare membranes and binding reactions (200 μl) are set up as follows: 50 μl of ^125I-sauvagine (0.2 nM final), 50 μl compound and 100 μl CRF1 membrane (25 μg/reaction). The reactions are incubated at room temperature for 2 hours and then terminated by filtration through pre-treated FB Millipore glass fiber filter plates (96 well). The plates are wash twice with ice-cold assay buffer (50 mM tris, 12.5 mM NaCl, 1 mM EDTA, 10 mM MgCl2, 0.05% BSA, pH 7.2), air dried over night and counted with 100 μl Microscint 40 in a MicroBeta counter. Non-specific binding (NSB) is determined in the presence of 0.5 μM non-labeled sauvagine. Triplicate determinations are typically run and the median data points plotted by Graph Pad Prism.
Using this assay, the exemplified compounds of the present invention (except for Examples 2, 3, 6, 7, and 8, which were used as intermediates for other Examples and were not tested.) inhibit the binding of ^125I-Sauvagine (4 nM) in roller/adherent cells with a Ki (inhibition constant)≦500 nM.

[1] = target: T2, binding of 125I-sauvagine to the cerebellum (Rattus norvegicus, UniProt P35353); assay: In vivo potency assessment using ex vivo binding; settings: oral route
T2 construct: from tissue; host or cells: rat cerebellum
T2 sequence (P35353 24-415): T1 sequence (P34998 24-415) with H6R, S9N, A13T, I16V, M153V, G163A, I209V, Y229H, H356R
Method: To assess in vivo potency, a compound of the present invention is evaluated using ex vivo binding. Using the procedures as provided in D. R. Gehlert et al., EJP 509: 145-153 (2005), a compound is administered to a rat via the oral route.

human CRF2 = target: T3, human CRF2 (Homo sapiens, UniProt Q13324); assay: CRF2 filter binding assay; settings: HEK-hCRF2 membranes; compound concentration 50 μM
T3 construct: expressed in transfected cells
T3 sequence (Q13324 1-411): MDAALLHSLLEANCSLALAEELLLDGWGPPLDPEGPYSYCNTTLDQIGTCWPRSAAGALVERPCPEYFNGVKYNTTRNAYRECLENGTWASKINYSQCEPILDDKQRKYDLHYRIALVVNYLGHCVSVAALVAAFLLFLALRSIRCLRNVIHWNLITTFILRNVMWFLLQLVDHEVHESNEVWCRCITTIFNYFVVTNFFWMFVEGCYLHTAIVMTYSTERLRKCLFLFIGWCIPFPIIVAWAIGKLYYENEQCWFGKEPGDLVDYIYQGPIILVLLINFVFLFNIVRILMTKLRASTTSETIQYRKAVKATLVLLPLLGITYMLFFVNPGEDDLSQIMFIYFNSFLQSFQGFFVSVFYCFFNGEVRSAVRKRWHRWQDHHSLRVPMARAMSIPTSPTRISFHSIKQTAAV
Method: The limitations of plasmid-based human CRF2 expression, in terms of generating a recombinant cell line with sufficient receptor density to develop a binding assay, are overcome by using a Phoenix retroviral expression system licensed from Stanford. The stable HEK-hCRF2 cell line is used to prepare membranes and binding reactions (200 μl) are set up as follows: 50 ul of ^125I-sauvagine (0.2 nM final concentration), 50 μl compound and 100 μl CRF2 membrane (25 μg/reaction). The reactions are incubated at room temperature for 2 hours and then terminated by filtration through pre-treated FB Millipore glass fiber filter plates (96 well). The plates are washed twice with ice-cold assay buffer (50 mM tris, 12.5 mM NaCl, 1 mM EDTA, 10 mM MgCl2, 0.05% BSA, pH 7.2), air dried over night and counted with 100 μl Microscint 40 in a MicroBeta counter. Non-specific binding (NSB) is determined in the presence of 0.5 μM non-labeled sauvagine. Alternatively, compounds are evaluated using a Scintillation Proximity assay. […] Bound radioactivity is assessed using a Wallac Trilux scintillation counter. Binding is assessed typically using triplicate determinations and the median data points plotted by Graph Pad Prism. […]

SMILES: CCCC(CCC)c1cc(C)nc2c(-c3sc(-c4ncnn4C)cc3Cl)c(C)nn12 [Example 20, 3-[3-Chloro-5-(2-methyl-2H-[1,2,4]triazole-3-yl)-thiophene-2-yl]-7-(1-propyl-butyl)-2,5-dimethyl-pyrazolo[1,5-a]pyrimidine]
- Ki (human CRF1): 4.4 nM
- inhibition at 10 mg/kg [1]: 74%
- inhibition at 50 µM (human CRF2): 39%
